Columns and labels:
Format in all cases: in vivo
[1] = tested on: POLCO: Polygonum convolvulus; experiment: Pre-emergence herbicidal effect; conditions: application rate 320 g/ha, scored visually after 3 weeks, 100% = plants have died, 0% = like control plants
In short: (§1)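 Compounds are applied pre-emergence as aqueous suspension or emulsion onto soil covering freshly sown seeds in sandy loam. Plants grow under greenhouse conditions, and activity is rated visually at 3 weeks as percent damage compared with untreated controls.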

[2] = tested on: MATIN: Matricaria inodora; experiment: Pre-emergence herbicidal effect; conditions: application rate 320 g/ha, scored visually after 3 weeks, 100% = plants have died, 0% = like control plants
In short: as §1

VERPE: Veronica persica [3] = experiment: Pre-emergence herbicidal effect; conditions: application rate 320 g/ha, scored visually after 3 weeks, 100% = plants have died, 0% = like control plants
In short: as §1

SETVI: Setaria viridis = experiment: Pre-emergence herbicidal effect; conditions: application rate 320 g/ha, scored visually after 3 weeks, 100% = plants have died, 0% = like control plants
In short: as §1

STEME: Stellaria media [4] = experiment: Pre-emergence herbicidal effect; conditions: application rate 320 g/ha, scored visually after 3 weeks, 100% = plants have died, 0% = like control plants
In short: as §1

[5] = tested on: ALOMY: Alopecurus myosuroides; experiment: Pre-emergence herbicidal effect; conditions: application rate 320 g/ha, scored visually after 3 weeks, 100% = plants have died, 0% = like control plants
In short: as §1

[6] = tested on: ECHCG: Echinochloa crus-galli; experiment: Pre-emergence herbicidal effect; conditions: application rate 320 g/ha, scored visually after 3 weeks, 100% = plants have died, 0% = like control plants
In short: as §1

[7] = tested on: ABUTH: Abutilon theophrasti; experiment: Pre-emergence herbicidal effect; conditions: application rate 320 g/ha, scored visually after 3 weeks, 100% = plants have died, 0% = like control plants
In short: as §1

[8] = tested on: LOLMU: Lolium multiflorum; experiment: Pre-emergence herbicidal effect; conditions: application rate 320 g/ha, scored visually after 3 weeks, 100% = plants have died, 0% = like control plants
In short: as §1

VIOTR: Viola tricolor = experiment: Post-emergence herbicidal effect; conditions: application rate 320 g/ha, treated at one-leaf stage, assessed visually after about 3 weeks, 100% = plants have died
In short: (§2)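 Seedlings at the one-leaf stage are treated over the foliage with an aqueous spray (600 to 800 L/ha, 0.2% wetting agent) of WP or EC preparations. They then stand in the greenhouse for about 3 weeks before a visual percent score against untreated controls.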

[9] = tested on: AMARE: Amaranthus retroflexus; experiment: Post-emergence herbicidal effect; conditions: application rate 320 g/ha, treated at one-leaf stage, assessed visually after about 3 weeks, 100% = plants have died
In short: as §2

VERPE: Veronica persica [10] = experiment: Post-emergence herbicidal effect; conditions: application rate 320 g/ha, treated at one-leaf stage, assessed visually after about 3 weeks, 100% = plants have died
In short: as §2

STEME: Stellaria media [11] = experiment: Post-emergence herbicidal effect; conditions: application rate 320 g/ha, treated at one-leaf stage, assessed visually after about 3 weeks, 100% = plants have died
In short: as §2

[12] = tested on: ALOMY: Alopecurus myosuroides; experiment: Post-emergence herbicidal effect; conditions: application rate 320 g/ha, treated at one-leaf stage, assessed visually after about 3 weeks, 100% = plants have died
In short: as §2

[13] = tested on: ECHCG: Echinochloa crus-galli; experiment: Post-emergence herbicidal effect; conditions: application rate 320 g/ha, treated at one-leaf stage, assessed visually after about 3 weeks, 100% = plants have died
In short: as §2

| SMILES | Herbicidal activity with respect to [%] POLCO [1] [%] | Herbicidal activity with respect to [%] MATIN [2] [%] | Herbicidal activity with respect to [%] VERPE (VERPE: Veronica persica [3]) [%] | Herbicidal activity with respect to [%] SETVI (SETVI: Setaria viridis) [%] | Herbicidal activity with respect to [%] STEME (STEME: Stellaria media [4]) [%] | Herbicidal activity with respect to [%] ALOMY [5] [%] | Herbicidal activity with respect to [%] ECHCG [6] [%] | Herbicidal activity with respect to [%] ABUTH [7] [%] | Herbicidal activity with respect to [%] LOLMU [8] [%] | Herbicidal activity with respect to [%] VIOTR (VIOTR: Viola tricolor) [%] | Herbicidal activity with respect to [%] AMARE [9] [%] | Herbicidal activity with respect to [%] VERPE (VERPE: Veronica persica [10]) [%] | Herbicidal activity with respect to [%] STEME (STEME: Stellaria media [11]) [%] | Herbicidal activity with respect to [%] ALOMY [12] [%] | Herbicidal activity with respect to [%] ECHCG [13] [%] |
| --- | --- | --- | --- | --- | --- | --- | --- | --- | --- | --- | --- | --- | --- | --- | --- |
| Cc1ccc2c(c1)[C@H](Nc1nnc(Cl)c(N)n1)[C@@H](C)C2 [Example 1.3, 6-Chloro-N^3-[(1R,2S)-2,6-dimethyl-2,3-dihydro-1H-inden-1-yl]-1,2,4-triazine-3,5-diamine] | 100 | 100 | 100 | 100 | 100 | 100 | 100 | 100 | 100 | 100 | 100 | 100 | 100 | 90 | 80 |
| Cc1ccc2c(c1)[C@H](Nc1nnc(C(F)(F)F)c(N)n1)[C@@H](C)C2 [Example 1.23] | 100 | 100 | 100 | 100 | 100 | 100 | 100 | 100 | 90 | 100 | 100 | 90 | 100 | 100 | 100 |
| Nc1nc(N[C@@H]2CCc3ccccc32)nnc1C(F)(F)F [Example 1.24] | 100 | 100 | 100 | 100 | 100 | 100 | 100 | 80 | 100 | 100 | 90 | 100 | 100 | 100 | 100 |
| Cc1ccc2c(c1)[C@H](Nc1nnc(C#N)c(N)n1)[C@@H](C)C2 [Example 1.25] | 100 | 100 | 100 | 100 | 100 | 100 | 100 | 100 | 100 | 90 | 90 | 100 | 100 | 100 | 100 |
| Cc1ccc2c(c1)[C@H](Nc1nnc([S+](C)[O-])c(N)n1)[C@@H](C)C2 (stereo partly drawn) [Example 1.44] | 100 | 100 | 100 | 100 | 100 | 100 | 100 | 100 | 100 | 90 | 100 | 100 | 90 | 100 | 90 |
